Data taken from patent publication US9499811B2, “Ligation enhancement” (New England Biolabs, Inc., priority 2011, dated 2016).

Columns and labels:
[1] = target: T1, T4 DNA ligase (Enterobacteria phage T4, UniProt P00970); format: biochemical; set-up: purchased NEB (New England Biolabs), Ipswich, Mass. #M0202; settings: enhancer at 12%; no addition = 1-fold; single-base overhangs
T1 sequence (P00970 1-487): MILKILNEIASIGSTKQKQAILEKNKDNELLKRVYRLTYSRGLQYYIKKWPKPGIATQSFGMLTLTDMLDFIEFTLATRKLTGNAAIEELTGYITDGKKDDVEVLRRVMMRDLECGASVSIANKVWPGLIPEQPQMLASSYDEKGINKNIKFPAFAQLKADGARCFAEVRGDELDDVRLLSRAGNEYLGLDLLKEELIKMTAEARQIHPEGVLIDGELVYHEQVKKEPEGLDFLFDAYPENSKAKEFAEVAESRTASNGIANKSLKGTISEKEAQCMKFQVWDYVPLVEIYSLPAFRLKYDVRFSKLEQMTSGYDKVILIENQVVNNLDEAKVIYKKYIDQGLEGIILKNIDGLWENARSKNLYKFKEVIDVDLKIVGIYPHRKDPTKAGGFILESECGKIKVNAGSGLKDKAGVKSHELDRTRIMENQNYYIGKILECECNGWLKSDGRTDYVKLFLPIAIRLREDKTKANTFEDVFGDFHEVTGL
Procedure: All were tested side-by-side using two ligation test systems which were: (a) cloning of a 500 bp amplicon made by Taq DNA polymerase into a T-tailed vector; and (b) recircularization of an AhdI-linearized plasmid. Both ligation test systems used DNA with single-base overhangs.
The reaction mixtures contained DNA at 50-100 ng and 1,2-PrD at different concentrations. 1 μl of regular concentration (NEB, Ipswich, Mass., #M0202; 400 units) or 1 μl of high concentration T4 DNA ligase (NEB, Ipswich, Mass., #M0202; 2000 units) was then added to a final volume of 21 μl in 1×T4 DNA Ligase Buffer (NEB, Ipwich, Mass., #B0202) or 1× Quick Ligase™ Buffer (NEB, Ipswich, Mass., #B2200).
A standard assay uses 100 ng DNA, 1 μl of T4 DNA ligase, 21 μl 1×T4 DNA ligase buffer and varying amounts of enhancer.
Ligation reactions were incubated for 10 min at room temperature (25° C.) unless otherwise stated, then placed on ice for 2 min. In some experiments the ligase was heat-killed by incubation at 65° C. for 20 min. The ligation reactions were analyzed by 1% agarose gel electrophoresis to identify DNA species and determine the efficiency of […].
A volume of 2 μl from each ligation reaction was incubated with 50 μl of chemically competent (NEB, Ipswich, Mass., #C2987I) or electrocompetent (NEB, Ipswich, Mass., #C2989K) DH5 alpha E. coli cells.
(§1) For chemically competent cell transformations, the cell-DNA mixture was incubated on ice for 30 min, heat-shocked at 42° C. for 30 sec, then returned to ice for 5 min. A volume of 950 μl SOC medium (2% vegetable peptone or Tryptone, 0.5% yeast extract, 10 mM NaCl, 2.5 mM KCl, 10 mM MgCl2, 10 mM MgSO4 and 20 mM glucose) was added to the cell-DNA mixture, followed by a one hr 37° C. outgrowth period with agitation. A volume of 25-50 μl of appropriately diluted cells in SOC was spread onto Rich Agar plates (composition per liter: 10 g soy peptone, 5 g yeast extract, 10 g NaCl, 1 g MgCl2-6H2O, 1 g dextrose, 15 grams agar) supplemented with 100 μg/ml ampicillin. Plates were inverted and incubated for 16 hrs at 37° C., followed by quantification of total colony numbers.

[2] = target: T1, T4 DNA ligase; assay: Ligation of one, two or three pUC19 fragments with single-base overhangs, transformation and gel analysis; format: biochemical; set-up: purchased NEB (New England Biolabs), Ipswich, Mass. #M0202; settings: for Ligation/Subsequent Transformation Enhancement: 12% 1,2-PrD vs none; for Transformation Efficiency +1,2-PrD / Resultant Colonies +1,2-PrD: 12% 1,2-PrD; for Resultant Colonies +1,2-PrD: 20 pg DNA plated
Procedure: FIGS. 4A-C show agarose gel electrophoresis analysis of ligation products achieved using +/−12% 1,2-PrD for one, two and three pUC19 fragment sets as described in FIGS. 3A-C. The marker lane indicated by M corresponds to 1 μg of a 2-log DNA ladder, New England Biolabs, Inc. (NEB), Ipswich, Mass., #3200. (1) is a 2686-bp linear AhdI-pUC19 fragment; (2) are 1527-bp and 1159-bp BciVI fragments; (3) are 2 lengths (2275-bp and 287-bp) of 3 BccI fragments where the third 124-bp fragment is not visible on the gel; (4) is a linearized intermediate ligation product formed by 2275-bp and 287-bp BccI fragments; (5) is the desired ligated/circularized plasmid which is a highly transformable desired product; and (6) are different kinds of linear and circular undesired concatameric ligation products which are not highly transformable.
as §1
Single fragment ligation (recircularization), two fragment ligation (cloning) and three fragment ligation (assembly) reactions were performed in the presence of 1,2-PrD (see FIGS. 3A-C). Restriction digests of pUC19 plasmid constructs were performed to completion by monitoring the reactions using 1% agarose gel electrophoresis. Upon completion all restriction enzymes were heat-inactivated by incubating the reaction for 20 min at 65° C. The DNA was purified by use of QiaQuick® (Qiagen, Valencia, Calif.) spin columns and quantified by comparison to known DNA standards by 1% agarose gel electrophoresis. […] Ligation reactions were performed as described in FIGS. 3A-C using 100 ng of DNA that had been restricted by AhdI, BciVI or BccI to leave a variety of single-base overhangs. From each 21 μl ligation reaction, 2 μl was used for transformation as analyzed in Table 4 and 19 μl was run on a 1% agarose gel prepared with tris-borate as described in FIGS. 4A-C. […] This is the highly transformable DNA circularized form.
The ligations took place with and without 12% 1,2-PrD present for 10 min at room temperature (25° C.) with 2000 units T4 DNA ligase. A volume of 2 μl from each ligation reaction was transformed into chemically competent DH5 alpha cells as described in Example 1. A volume of 40 μl of a 1:20 dilution of the outgrowth in SOC medium was plated on medium Rich Agar plates supplemented with ampicillin. This volume corresponded to 20 pg of DNA from the original ligation reaction.

[3] = 1 fragment (AhdI-linearized pUC19)

## CC(O)CO (centres unmarked) [1,2-PrD, 1,2-propanediol]
[1]
  Recircularization Enhancement: 11-fold
[2]; [3]
  Ligation/Subsequent Transformation Enhancement: 12-fold
  Transformation Efficiency +1,2-PrD: 51.4 × 10e^6/μg DNA
[2]; 2 fragments (BciVI-pUC19)
  Ligation/Subsequent Transformation Enhancement: At least 35-fold
  Transformation Efficiency +1,2-PrD: 1.8 × 10e^6/μg DNA
  Resultant Colonies +1,2-PrD: 35
[2]; 3 fragments (BccI-pUC19)
  Ligation/Subsequent Transformation Enhancement: 18-fold
  Transformation Efficiency +1,2-PrD: 1.85 × 10e^6/μg DNA
  Resultant Colonies +1,2-PrD: 37
[2]; 1 fragment (AhdI-linearized pUC19), 2000 units T4 DNA ligase, 10 min 25 C
  Resultant Colonies +1,2-PrD: 1027
[2]; +/-12% 1,2-PrD, one, two and three pUC19 fragment sets (FIGS. 4A-C)
  Amount of ligated circularized plasmid on agarose gel: significant beneficial effect on the amount of ligated circularized plasmid
